In BindingDB's records for doi:10.1021/acsmedchemlett.7b00157 (Novartis Institutes For Biomedical Research, 2017):

Molecular target: T1, Prostaglandin D2 receptor 2 (Homo sapiens, UniProt Q9Y5Y4)
T1 sequence (Q9Y5Y4 whole entry): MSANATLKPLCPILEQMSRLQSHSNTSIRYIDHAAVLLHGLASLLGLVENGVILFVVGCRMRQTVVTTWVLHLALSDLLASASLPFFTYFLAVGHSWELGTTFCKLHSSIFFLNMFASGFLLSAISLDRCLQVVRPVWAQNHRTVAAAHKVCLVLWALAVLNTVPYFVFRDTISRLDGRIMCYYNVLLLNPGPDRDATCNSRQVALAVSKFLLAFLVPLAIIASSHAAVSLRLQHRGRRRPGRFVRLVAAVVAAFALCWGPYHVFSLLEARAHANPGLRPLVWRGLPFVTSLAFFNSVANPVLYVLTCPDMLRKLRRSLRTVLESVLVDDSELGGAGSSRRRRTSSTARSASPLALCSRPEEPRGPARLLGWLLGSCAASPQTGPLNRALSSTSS
Test: Antagonist activity at DP2 receptor in human whole assessed as inhibition of DK-PGD2-induced eosinophils shape change preincubated for 5 mins followed by DK-PGD2 addition measured after 5 mins by flow cytometry

IC50 [µM]	SMILES
0.007	CCS(=O)(=O)c1ccc(Cn2c(C)c(CC(=O)O)c3cccnc32)c(Cl)c1

Molecular target: not listed separately
Test: Antagonist activity at DP2 receptor in human whole assessed as inhibition of DK-PGD2-induced eosinophils shape change preincubated for 5 mins followed by DK-PGD2 addition measured after 5 mins by flow cytometry

SMILES	IC50 [µM]
Cc1c(CC(=O)O)c2cccnc2n1Cc1ccc(S(C)(=O)=O)cc1Cl	0.047
Cc1cc(S(C)(=O)=O)ccc1Cn1c(C)c(CC(=O)O)c2cccnc21	0.032
Cc1c(CC(=O)O)c2ccccc2n1Cc1ccc(S(C)(=O)=O)cc1	0.188
Cc1c(CC(=O)O)c2cccnc2n1Cc1ccc(C(F)(F)F)cc1C(F)(F)F	0.214

Other lines, results leading:

IC50 [µM]	SMILES
0.011	Cc1c(CC(=O)O)c2cccnc2n1Cc1ccc(S(C)(=O)=O)c(C(F)(F)F)c1
0.004	CCS(=O)(=O)c1ccc(Cn2c(C)c(CC(=O)O)c3cccnc32)c(C(F)(F)F)c1
